The assay has as its system Adult mongrel dogs, left anterior descending coronary artery (LAD) occlusion/reperfusion. Briefly: Infarct size in the dog, 60 min LAD occlusion and 3 h reperfusion. The following applies: L34 35 μg/kg 24 h before occlusion + aminoguanidine (AG) 30 mg/kg s.c. 60 min before occlusion; mean ± SEM; 30 mg/kg. Format: in vivo. As to the method:
Adult mongrel dogs of either sex, weighing 19.0-30.0 kg were fasted overnight, anaesthetized with intravenous sodium barbital (200 mg/kg) and sodium pentobarbital (15 mg/kg), and ventilated with room air supplemented with 100% oxygen at an end expiratory pressure of 5-7 cm H2O to prevent atelectasis. Arterial blood pH PO2 and PCO2 were monitored at selected intervals by an automatic blood gas system and maintained within a normal physiological range (pH 7.35-7.45, PO2 10.6-16.0 kPa, PCO2 3,3-4.7 kPa) by adjusting the respiratory rate and oxygen flow and by an infusion of 1.5% sodium bicarbonate when necessary. Body temperature was maintained at 38±1° C. by using a heating pad.
A double pressure-transducer-tipped catheter was inserted into the aorta and left ventricle via the left carotid artery for measurements of aortic and left ventricular pressure. Left ventricular dP/dt was determined by electronic differentiation of the left ventricular pressure pulse.
A left thoracotomy was performed at the fifth intercostal space. The lung was retracted, the pericardium incised, and the heart suspended in a cradle. A 10-15 mm segment of the left anterior descending coronary artery (LAD) was dissected from surrounding tissue. […]
Regional myocardial blood flow was measured by the radioactive microsphere technique. […]

One compound from patent US6399590B2, “Phosphoglycolipid and methods for its use” (Corixa Corporation, priority 1998, dated 2002) can be followed below.

Consider `CCCCCCCCCCCCCCCCCC(=O)O[C@H](CCCCCCCCCCC)CC(=O)N[C@H]1[C@H](OC[C@H]2OC(O)[C@H](NC(=O)C[C@@H](CCCCCCCCCCC)OC(=O)CCCCCCCCCCCCCCC)[C@@H](O)[C@@H]2O)O[C@H](CO)[C@@H](OP(=O)(O)O)[C@@H]1OC(=O)C[C@@H](CCCCCCCCCCC)OC(=O)CCCCCCCCCCCCC` (stereo partly drawn) [L34, 2-Deoxy-6-O-[2-deoxy-4-O-phosphono-3-O-[(R)-3-tetradecanoyloxytetradecanoyl]-2-[(R)-3-octadecanoyloxytetradecanoylamino]-β-D-glucopyranosyl]-2-[(R)-3-hexadecanoyloxytetradecanoylamino]-D-glucopyranose], for which the “IS/AAR(%) (infarct size / area at risk)” value is 25.2±2.7%.
